Here are results for 17 compounds from patent US12410208B2, “(2-acetamidyl)thio-beta-D-galactopyranoside derivatives” (Idorsia Pharmaceuticals Ltd, priority 2020, dated 2025).

Where two headings read alike, the source gives them in different places.

Test [1] addresses biotinylated human Gal-3 (hGal-3) (Homo sapiens, UniProt P17931). In words: Competitive binding assay: biotinylated hGal-3 binding to microplate-adsorbed asialofetuin (ASF), spectrophotometric. The procedure, abridged:
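Serially diluted compounds competed with asialofetuin on the plate for biotinylated human Gal-3 during a 3 h incubation at 4° C. Streptavidin-peroxidase with ABTS gave the spectrophotometric signal. IC50 values were averaged over repeat runs.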

In another test the target is human Gal-1 (hGal-1) (Homo sapiens, UniProt P09382). Description: Competitive binding assay: biotinylated hGal-1 binding to microplate-adsorbed asialofetuin (ASF), spectrophotometric. The conditions noted are these: hGal-1 binding to asialofetuin; Table 15; R and S epimers of selected Examples also listed; read-out: IC50 (Galectin-1 inhibition). The essentials:
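Spectrophotometric competition readout with ABTS after streptavidin-peroxidase (80 ng/mL, 1 h, 4 °C) detection of bound biotinylated hGal-1.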

The mark [2] stands for this setting: Table 6, hGal-3, read-out: IC50 (Gal-3 inhibition).
[3] abbreviates: Table 8, hGal-3, read-out: IC50 (Gal-3 inhibition).
The mark [4] stands for this setting: Gal-3 inhibition, Table 4, read-out: IC50.
Where [5] appears, read: Gal-3 inhibition, Table 5, read-out: IC50.

Chain of human Gal-1 (hGal-1) (P09382 whole entry): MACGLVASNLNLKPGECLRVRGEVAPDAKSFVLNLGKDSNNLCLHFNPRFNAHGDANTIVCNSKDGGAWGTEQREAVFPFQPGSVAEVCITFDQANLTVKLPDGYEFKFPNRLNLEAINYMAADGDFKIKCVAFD
Chain of biotinylated human Gal-3 (hGal-3) (P17931 whole entry): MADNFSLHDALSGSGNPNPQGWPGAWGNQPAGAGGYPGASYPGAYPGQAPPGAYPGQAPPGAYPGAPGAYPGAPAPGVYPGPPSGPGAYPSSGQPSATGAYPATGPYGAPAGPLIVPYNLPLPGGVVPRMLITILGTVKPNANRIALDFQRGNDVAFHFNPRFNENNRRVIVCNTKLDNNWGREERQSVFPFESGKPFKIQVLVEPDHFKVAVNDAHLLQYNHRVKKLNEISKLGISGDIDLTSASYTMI

Turning to `CCN(C)C(=O)[C@@H](S[C@@H]1O[C@H](CO)[C@H](O)[C@H](n2cc(-c3cc(F)c(F)c(F)c3)nn2)[C@H]1O)C(O)(CC)CC` [Example 2.32.203S., (S)-2-(((2S,3R,4S,5R,6R)-3,5-Dihydroxy-6-(hydroxymethyl)-4-(4-(3,4,5-trifluorophenyl)-1H-1,2,3-triazol-1-yl)tetrahydro-2H-pyran-2-yl)thio)-N,3-diethyl-3-hydroxy-N-methylpentanamide], the concentration for half-maximal inhibition (IC50) (usually the concentration that gives 50% inhibition) was 240 nM in test [1] (setting [2]) and 730 nM on human Gal-1 (hGal-1).
On to `CCN(C)C(=O)[C@H](S[C@@H]1O[C@H](CO)[C@H](O)[C@H](n2cc(-c3cc(F)c(F)c(F)c3)nn2)[C@H]1O)C1(O)CCN(S(=O)(=O)C2CC2)CC1` [Example 2.51.203R., (R)-2-(1-(Cyclopropylsulfonyl)-4-hydroxypiperidin-4-yl)-2-(((2S,3R,4S,5R,6R)-3,5-dihydroxy-6-(hydroxymethyl)-4-(4-(3,4,5-trifluorophenyl)-1H-1,2,3-triazol-1-yl)tetrahydro-2H-pyran-2-yl)thio)-N-ethyl-N-methylacetamide], for which the IC50 in test [1] (setting [3]) was found to be 4960 nM; on human Gal-1 (hGal-1) it was 7500 nM.
Turning to “(2R,3R,4S,5R,6S)-2-(Acetoxymethyl)-6-(((R)-2-(ethyl(methyl)amino)-1-(3-hydroxy-1-(methoxycarbonyl)azetidin-3-yl)-2-oxoethyl)thio)-4-(4-(3,4,5-trifluorophenyl)-1H-1,2,3-triazol-1-yl)tetrahydro-2H-pyran-3,5-diyl diacetate [Example 2.58.203R.]”, the concentration for half-maximal inhibition (IC50) in test [1] (setting [3]) was determined as 450 nM; on human Gal-1 (hGal-1) it was 1180 nM.
For `CN(CC1CCCC1)C(=O)[C@H](S[C@@H]1O[C@H](CO)[C@H](O)[C@H](n2cc(-c3cc(F)c(F)c(F)c3)nn2)[C@H]1O)C1(O)CCOCC1` [Example 2.41.212., (R)-N-(cyclopentylmethyl)-2-(((2S,3R,4S,5R,6R)-3,5-dihydroxy-6-(hydroxymethyl)-4-(4-(3,4,5-trifluorophenyl)-1H-1,2,3-triazol-1-yl)tetrahydro-2H-pyran-2-yl)thio)-2-(4-hydroxytetrahydro-2H-pyran-4-yl)-N-methylacetamide], the figures for the IC50 (in test [1] (setting [4]); on human Gal-1 (hGal-1)) were 80 nM and 200 nM, respectively.
Turning to `CN(CC(F)(F)F)C(=O)[C@@H](S[C@@H]1O[C@H](CO)[C@H](O)[C@H](n2cc(-c3cc(F)c(F)c(F)c3)nn2)[C@H]1O)C1(O)CCC1` [Example 2.34.219S., (S)-2-(((2S,3R,4S,5R,6R)-3,5-Dihydroxy-6-(hydroxymethyl)-4-(4-(3,4,5-trifluorophenyl)-1H-1,2,3-triazol-1-yl)tetrahydro-2H-pyran-2-yl)thio)-2-(1-hydroxycyclobutyl)-N-methyl-N-(2,2,2-trifluoroethyl)acetamide], the IC50 in test [1] (setting [5]) is 110 nM; on human Gal-1 (hGal-1), 120 nM.
Consider `CCN(CC)C(=O)C(S[C@@H]1O[C@H](CO)[C@H](O)[C@H](n2cc(-c3cc(F)c(F)c(F)c3)nn2)[C@H]1O)C(C)(C)O` (stereo partly drawn) [Example 2.31.202., 2-(((2S,3R,4S,5R,6R)-3,5-Dihydroxy-6-(hydroxymethyl)-4-(4-(3,4,5-trifluorophenyl)-1H-1,2,3-triazol-1-yl)tetrahydro-2H-pyran-2-yl)thio)-N,N-diethyl-3-hydroxy-3-methylbutanamide], for which the half-inhibitory concentration (IC50) in test [1] (Gal-3 inhibition, Table 3, read-out: IC50) is 160 nM; on human Gal-1 (hGal-1) it was 2770 nM.
Consider `CCN(C)C(=O)C(S[C@@H]1O[C@H](CO)[C@H](O)[C@H](n2cc(-c3cc(F)c(F)c(F)c3)nn2)[C@H]1O)C1(O)CCCCC1` (stereo partly drawn) [Example 2.39.203., 2-(((2S,3R,4S,5R,6R)-3,5-Dihydroxy-6-(hydroxymethyl)-4-(4-(3,4,5-trifluorophenyl)-1H-1,2,3-triazol-1-yl)tetrahydro-2H-pyran-2-yl)thio)-N-ethyl-2-(1-hydroxycyclohexyl)-N-methylacetamide], for which the 50% inhibitory concentration (IC50) in test [1] (setting [5]) is 70 nM; on human Gal-1 (hGal-1), 170 nM.
For `CCN(C)C(=O)[C@@H](S[C@@H]1O[C@H](CO)[C@H](O)[C@H](n2cc(-c3cc(F)c(F)c(F)c3)nn2)[C@H]1O)C1(O)CC(F)(F)C1` [Example 2.33.203S., (S)-2-(3,3-Difluoro-1-hydroxycyclobutyl)-2-(((2S,3R,4S,5R,6R)-3,5-dihydroxy-6-(hydroxymethyl)-4-(4-(3,4,5-trifluorophenyl)-1H-1,2,3-triazol-1-yl)tetrahydro-2H-pyran-2-yl)thio)-N-ethyl-N-methylacetamide], the IC50 came to 50 nM in test [1] (setting [5]) and 110 nM at human Gal-1 (hGal-1).
Consider `CCN(C)C(=O)C(S[C@@H]1O[C@H](CO)[C@H](O)[C@H](n2cc(-c3cc(F)c(F)c(F)c3)nn2)[C@H]1O)C1(O)CCN(C(=O)NC2CC2)CC1` (stereo partly drawn) [Example 2.49.203., N-Cyclopropyl-4-(1-(((2S,3R,4S,5R,6R)-3,5-dihydroxy-6-(hydroxymethyl)-4-(4-(3,4,5-trifluorophenyl)-1H-1,2,3-triazol-1-yl)tetrahydro-2H-pyran-2-yl)thio)-2-(ethyl(methyl)amino)-2-oxoethyl)-4-hydroxypiperidine-1-carboxamide], for which the IC50 in test [1] (setting [3]) stood at 50 nM; at human Gal-1 (hGal-1), 70 nM.
Turning to `CCN(CC1CCOCC1)C(=O)C(S[C@@H]1O[C@H](CO)[C@H](O)[C@H](n2cc(-c3cc(F)c(F)c(F)c3)nn2)[C@H]1OC)C1(O)CCC(F)(F)CC1` (stereo partly shown) [Example 2.44.214.I.], the IC50 in test [1] (Table 10, hGal-3, read-out: IC50 (Gal-3 inhibition)) amounted to 30 nM; at human Gal-1 (hGal-1), 20 nM.
`CCN(C)C(=O)[C@@H](S[C@@H]1O[C@H](CO)[C@H](O)[C@H](n2cc(-c3cc(F)c(F)c(F)c3)nn2)[C@H]1O)C1(O)CCN(S(=O)(=O)C2CC2)CC1` [Example 2.51.203S., (S)-2-(1-(Cyclopropylsulfonyl)-4-hydroxypiperidin-4-yl)-2-(((2S,3R,4S,5R,6R)-3,5-dihydroxy-6-(hydroxymethyl)-4-(4-(3,4,5-trifluorophenyl)-1H-1,2,3-triazol-1-yl)tetrahydro-2H-pyran-2-yl)thio)-N-ethyl-N-methylacetamide [1,3-di-deoxy-1-((2-(1-(cyclopropylsulfonyl)-4-hydroxypiperidin-4-yl)-N-ethyl-N-methylacetamide)-(S)-thio)-3-[4-(3,4,5-trifluorophenyl)-1H-1,2,3-triazol-1-yl]-β-D-galactopyranoside]]: the IC50 in test [1] (setting [3]) turned out to be 20 nM; at human Gal-1 (hGal-1), 30 nM.
For `CN(C)C(=O)C(S[C@@H]1O[C@H](CO)[C@H](O)[C@H](n2cc(-c3cc(F)c(F)c(F)c3)nn2)[C@H]1O)C1(O)CCOCC1` (stereo partly drawn) [Example 2.41.201., 2-(((2S,3R,4S,5R,6R)-3,5-Dihydroxy-6-(hydroxymethyl)-4-(4-(3,4,5-trifluorophenyl)-1H-1,2,3-triazol-1-yl)tetrahydro-2H-pyran-2-yl)thio)-2-(4-hydroxytetrahydro-2H-pyran-4-yl)-N,N-dimethylacetamide], the IC50 in test [1] (setting [4]) was determined as 180 nM; on human Gal-1 (hGal-1), 1800 nM.
Regarding `O=C([C@H](S[C@@H]1O[C@H](CO)[C@H](O)[C@H](n2cc(-c3cc(F)c(F)c(F)c3)nn2)[C@H]1O)C1(O)CCC1)N1CCCCC1` [Example 2.34.208R., (R)-2-(((2S,3R,4S,5R,6R)-3,5-Dihydroxy-6-(hydroxymethyl)-4-(4-(3,4,5-trifluorophenyl)-1H-1,2,3-triazol-1-yl)tetrahydro-2H-pyran-2-yl)thio)-2-(1-hydroxycyclobutyl)-1-(piperidin-1-yl)ethan-1-one], the half-maximal inhibitory concentration (IC50) in test [1] (setting [5]) amounted to 3240 nM; at human Gal-1 (hGal-1) it was 11500 nM.
Regarding `CCN(CC1CC1)C(=O)C(S[C@@H]1O[C@H](CO)[C@H](O)[C@H](n2cc(-c3cc(F)c(F)c(F)c3)nn2)[C@H]1O)C1(O)CCOCC1` (stereo partly drawn) [Example 2.41.236., N-(Cyclopropylmethyl)-2-(((2S,3R,4S,5R,6R)-3,5-dihydroxy-6-(hydroxymethyl)-4-(4-(3,4,5-trifluorophenyl)-1H-1,2,3-triazol-1-yl)tetrahydro-2H-pyran-2-yl)thio)-N-ethyl-2-(4-hydroxytetrahydro-2H-pyran-4-yl)acetamide], the IC50 in test [1] (setting [5]) stood at 4470 nM; on human Gal-1 (hGal-1) it was 9900 nM.
For `CN(CC1CC1)C(=O)[C@@H](S[C@@H]1O[C@H](CO)[C@H](O)[C@H](n2cc(-c3cc(F)c(F)c(F)c3)nn2)[C@H]1O)C1(O)CC(F)(F)C1` [Example 2.33.218S., (S)-N-(Cyclopropylmethyl)-2-(3,3-difluoro-1-hydroxycyclobutyl)-2-(((2S,3R,4S,5R,6R)-3,5-dihydroxy-6-(hydroxymethyl)-4-(4-(3,4,5-trifluorophenyl)-1H-1,2,3-triazol-1-yl)tetrahydro-2H-pyran-2-yl)thio)-N-methylacetamide], the 50% inhibitory concentration (IC50) in test [1] (setting [5]) was 40 nM; on human Gal-1 (hGal-1) it was 60 nM.
With `CCN(C)C(=O)[C@H](S[C@@H]1O[C@H](CO)[C@H](O)[C@H](n2cc(-c3cc(F)c(F)c(F)c3)nn2)[C@H]1O)C1(O)CCN(C(=O)NC2CC2)CC1` [Example 2.49.203R., (R)-N-Cyclopropyl-4-(1-(((2S,3R,4S,5R,6R)-3,5-dihydroxy-6-(hydroxymethyl)-4-(4-(3,4,5-trifluorophenyl)-1H-1,2,3-triazol-1-yl)tetrahydro-2H-pyran-2-yl)thio)-2-(ethyl(methyl)amino)-2-oxoethyl)-4-hydroxypiperidine-1-carboxamide], the IC50 in test [1] (setting [3]) stood at 2650 nM; at human Gal-1 (hGal-1) it was 4430 nM.
`CN(CC(C)(C)C)C(=O)C(S[C@@H]1O[C@H](CO)[C@H](O)[C@H](n2cc(-c3cc(F)c(F)c(F)c3)nn2)[C@H]1O)C(C)(C)O` (stereo partly drawn) [Example 2.31.228., 2-(((2S,3R,4S,5R,6R)-3,5-Dihydroxy-6-(hydroxymethyl)-4-(4-(3,4,5-trifluorophenyl)-1H-1,2,3-triazol-1-yl)tetrahydro-2H-pyran-2-yl)thio)-3-hydroxy-N,3-dimethyl-N-neopentylbutanamide]: the IC50 was 670 nM in test [1] (setting [2]) and 1650 nM on human Gal-1 (hGal-1).
